From ChEMBL document CHEMBL3301458, “MMV Malaria Box hERG screening” come the findings set out here.

Data set [1] concerns the target T1, hERG (Kv11.1, KCNH2) (Homo sapiens, UniProt Q12809). Description: in vitro.
Description: MMV: Malaria Box compounds were tested for inhibition of the human ether a go-go related gene (hERG), Kv11.1 channel, using IonWorks 384-well patch clamp electrophysiology at 11.1uM (3 independent assay plates up to 12 cells per concentration).
Data set [2] concerns the target T1, hERG (Kv11.1, KCNH2). The data set is described as follows: in vitro. This is another data set of the same source.
Description: MMV: Malaria Box compounds were tested for inhibition of the human ether a go-go related gene (hERG), Kv11.1 channel, using IonWorks 384-well patch clamp electrophysiology at 1.1uM (3 independent assay plates up to 12 cells per concentration).

Active and inactive are the calls of the source. The rule behind the calls is not given here.

By inhibition is commonly meant the drop in the measured response relative to a control, in per cent.

T1 sequence (Q12809 whole entry): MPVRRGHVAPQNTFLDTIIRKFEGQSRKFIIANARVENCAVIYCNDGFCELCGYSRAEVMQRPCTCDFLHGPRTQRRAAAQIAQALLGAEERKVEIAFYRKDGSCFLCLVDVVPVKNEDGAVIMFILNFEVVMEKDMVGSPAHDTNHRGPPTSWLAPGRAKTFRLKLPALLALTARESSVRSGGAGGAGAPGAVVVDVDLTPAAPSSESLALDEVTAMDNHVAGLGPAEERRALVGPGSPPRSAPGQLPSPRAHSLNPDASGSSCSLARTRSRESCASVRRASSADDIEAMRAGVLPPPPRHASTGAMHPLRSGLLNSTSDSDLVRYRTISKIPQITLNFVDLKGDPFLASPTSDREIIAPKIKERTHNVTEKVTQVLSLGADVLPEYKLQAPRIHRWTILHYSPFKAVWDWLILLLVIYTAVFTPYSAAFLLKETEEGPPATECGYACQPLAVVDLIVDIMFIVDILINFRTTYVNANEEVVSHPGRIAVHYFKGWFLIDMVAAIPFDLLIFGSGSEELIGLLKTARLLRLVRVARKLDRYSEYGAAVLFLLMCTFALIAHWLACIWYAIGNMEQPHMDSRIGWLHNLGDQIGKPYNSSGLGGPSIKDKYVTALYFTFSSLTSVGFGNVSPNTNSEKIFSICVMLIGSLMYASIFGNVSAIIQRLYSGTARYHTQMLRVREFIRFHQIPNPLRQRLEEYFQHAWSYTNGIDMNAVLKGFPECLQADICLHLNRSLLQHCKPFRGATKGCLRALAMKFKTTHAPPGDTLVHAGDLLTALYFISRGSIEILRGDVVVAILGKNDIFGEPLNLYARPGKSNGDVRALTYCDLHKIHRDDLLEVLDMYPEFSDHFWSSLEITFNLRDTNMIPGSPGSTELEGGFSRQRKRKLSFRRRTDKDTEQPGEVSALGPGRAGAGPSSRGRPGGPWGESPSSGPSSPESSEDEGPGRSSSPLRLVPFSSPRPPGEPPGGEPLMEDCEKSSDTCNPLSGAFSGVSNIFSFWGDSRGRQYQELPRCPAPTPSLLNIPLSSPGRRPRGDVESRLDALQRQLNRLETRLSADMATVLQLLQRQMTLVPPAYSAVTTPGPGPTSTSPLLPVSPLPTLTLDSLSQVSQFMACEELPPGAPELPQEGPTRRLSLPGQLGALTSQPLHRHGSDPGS

In the case of `COc1cccc(C(=O)Nc2ccc(-c3nc4ccccc4[nH]3)cc2)c1`, on hERG (Kv11.1, KCNH2) [1], the inhibition at 11.1 µM was 5% (inactive). Besides, on hERG (Kv11.1, KCNH2) [2], the inhibition at 1.1 µM was 4%.

Take `O=C1c2ccc3c4c(ccc(c24)C(=O)N1CCCCO)C(=O)N(CCCCO)C3=O`: at hERG (Kv11.1, KCNH2) [1], the inhibition at 11.1 µM is 37%. Further, the inhibition at 1.1 µM at hERG (Kv11.1, KCNH2) [2] was determined as 3%.

Regarding `CCN(Cc1ccccc1)C1CCN(Cc2cc(Br)ccc2O)CC1`, at hERG (Kv11.1, KCNH2) [1], the inhibition at 11.1 µM was 96% (active). Further, the inhibition at 1.1 µM against hERG (Kv11.1, KCNH2) [2] came out at 18%.

In the case of `Nc1ccc(-c2nc3cc(Oc4ccc(Oc5ccc6[nH]c(-c7ccc(N)cc7)nc6c5)cc4)ccc3[nH]2)cc1`, the inhibition at 11.1 µM at hERG (Kv11.1, KCNH2) [1] is 23% (inactive). The inhibition at 1.1 µM against hERG (Kv11.1, KCNH2) [2] was found to be 18%.

Turning to `Cc1ccc(C)c(Cn2c(N3CCC(C(=O)NCc4cccs4)CC3)nc3ccccc32)c1`, at hERG (Kv11.1, KCNH2) [1], the inhibition at 11.1 µM is 84% (active). Moreover, at hERG (Kv11.1, KCNH2) [2], the inhibition at 1.1 µM turned out to be 16%.

On to `CCOc1cccc(C(=O)Nc2ccc(-c3nc4ccccc4[nH]3)cc2)c1`, for which the inhibition at 11.1 µM on hERG (Kv11.1, KCNH2) [1] is -7% (inactive). The inhibition at 1.1 µM at hERG (Kv11.1, KCNH2) [2] was found to be 0%.

With `CC1CCN(Cc2c(O)ccc3cc(-c4nc5ccccc5s4)c(=O)oc23)CC1`, the inhibition at 11.1 µM at hERG (Kv11.1, KCNH2) [1] is 10% (inactive). For the same compound, the inhibition at 1.1 µM against hERG (Kv11.1, KCNH2) [2] is -3%.

On to `Cc1cc(N(C)C)nc(Nc2ccc(NC(=O)Nc3ccccc3)cc2)n1`, for which, at hERG (Kv11.1, KCNH2) [1], the inhibition at 11.1 µM is -1% (inactive). Moreover, the inhibition at 1.1 µM against hERG (Kv11.1, KCNH2) [2] worked out at 2%.

Regarding `Clc1cc(Br)ccc1-c1ccc(CNCC2CCNCC2)o1`, the inhibition at 11.1 µM at hERG (Kv11.1, KCNH2) [1] was 83% (active). Also, at hERG (Kv11.1, KCNH2) [2], the inhibition at 1.1 µM turned out to be 16%.

Regarding `Cc1c(C)n(Cc2ccc(F)cc2)c2ccc(C(=O)NCc3ccco3)cc12`, the inhibition at 11.1 µM at hERG (Kv11.1, KCNH2) [1] is 5% (inactive). Besides, the inhibition at 1.1 µM against hERG (Kv11.1, KCNH2) [2] was -2%.

Consider `COc1ccc(C2C(C(=O)Nc3cccc(OC)c3)c3ccccc3C(=O)N2C2CCCCC2)cc1` (configuration not stated), for which the inhibition at 11.1 µM at hERG (Kv11.1, KCNH2) [1] was 70% (active). Further, the inhibition at 1.1 µM against hERG (Kv11.1, KCNH2) [2] worked out at 4%.

Consider `CCN(CC)c1ccc(NC(=O)c2cccs2)cc1`, for which the inhibition at 11.1 µM on hERG (Kv11.1, KCNH2) [1] was 1% (inactive). The inhibition at 1.1 µM at hERG (Kv11.1, KCNH2) [2] is -1%.

As to `CN1C=C(c2ccc3ccccc3n2)C(c2c[nH]c3ccccc23)c2ccccc21` (configuration not stated), the inhibition at 11.1 µM on hERG (Kv11.1, KCNH2) [1] was 89% (active). Further, the inhibition at 1.1 µM against hERG (Kv11.1, KCNH2) [2] came to 8%.

With `Cc1cc(NC(=O)c2ccc(-c3ccccc3)cc2)no1`, at hERG (Kv11.1, KCNH2) [1], the inhibition at 11.1 µM was 12% (inactive). For the same compound, at hERG (Kv11.1, KCNH2) [2], the inhibition at 1.1 µM was -2%.

In the case of `COc1cccc(-c2nn(C)c3sc(C(=O)NCCN4CCN(c5ccccc5F)CC4)cc23)c1`, the inhibition at 11.1 µM at hERG (Kv11.1, KCNH2) [1] was 91% (active). Also, on hERG (Kv11.1, KCNH2) [2], the inhibition at 1.1 µM worked out at 21%.

In the case of `COc1ccccc1CNC(=O)CCn1c(=O)[nH]c2ccsc2c1=O`, the inhibition at 11.1 µM at hERG (Kv11.1, KCNH2) [1] was 5% (inactive). On hERG (Kv11.1, KCNH2) [2], the inhibition at 1.1 µM is -1%.

`O=C(Nc1ccc(N2CCN(Cc3ccccc3)CC2)cc1)c1cccs1`: the inhibition at 11.1 µM on hERG (Kv11.1, KCNH2) [1] turned out to be 32%. Moreover, the inhibition at 1.1 µM at hERG (Kv11.1, KCNH2) [2] came out at 12%.

Turning to `O=C(Nc1ccc(-c2nc3cc4ccccc4cc3[nH]2)cc1)c1cccc(Br)c1`, the inhibition at 11.1 µM on hERG (Kv11.1, KCNH2) [1] was -2% (inactive). Further, the inhibition at 1.1 µM against hERG (Kv11.1, KCNH2) [2] was -1%.

In the case of `Cc1ccc(Nc2nc(N)c3ccccc3n2)cc1Cl`, the inhibition at 11.1 µM at hERG (Kv11.1, KCNH2) [1] was 85% (active). In addition, the inhibition at 1.1 µM against hERG (Kv11.1, KCNH2) [2] was 5%.

With `O=C(Nc1ccc(N2CCCCC2)c(Cl)c1)c1ccc(Br)o1`, the inhibition at 11.1 µM against hERG (Kv11.1, KCNH2) [1] worked out at 41%. Besides, the inhibition at 1.1 µM against hERG (Kv11.1, KCNH2) [2] was -3%.

For the compound `Cc1cc(C)c2nc(N3CCC(C(=O)NCCCN4CCC(N5CCCCC5)CC4)CC3)sc2c1`, the inhibition at 11.1 µM at hERG (Kv11.1, KCNH2) [1] is 60% (active). The inhibition at 1.1 µM against hERG (Kv11.1, KCNH2) [2] was determined as 18%.

In the case of `Cc1cc(Nc2ccc(Cl)cc2)n2nc(C(F)(F)F)nc2n1`, the inhibition at 11.1 µM on hERG (Kv11.1, KCNH2) [1] is 59% (active). Besides, at hERG (Kv11.1, KCNH2) [2], the inhibition at 1.1 µM was found to be 19%.

With `Oc1c2c(nc3cc(-c4ccccc4)nn13)CCCC2`, the inhibition at 11.1 µM at hERG (Kv11.1, KCNH2) [1] was -2% (inactive). The inhibition at 1.1 µM against hERG (Kv11.1, KCNH2) [2] amounted to 2%.

Take `CCOC(=O)C1CCN(C(=O)CN2C(=O)c3ccccc3C2c2c[nH]c3ccccc23)CC1` (configuration not stated): the inhibition at 11.1 µM at hERG (Kv11.1, KCNH2) [1] was 18% (inactive). The inhibition at 1.1 µM against hERG (Kv11.1, KCNH2) [2] is -9%.

With `COc1cc(OC)cc(N2C(=O)N(Cc3ccc(C(C)(C)C)cc3)c3ccccc3S2(=O)=O)c1`, the inhibition at 11.1 µM at hERG (Kv11.1, KCNH2) [1] was 16% (inactive). Besides, the inhibition at 1.1 µM at hERG (Kv11.1, KCNH2) [2] is 10%.

For `CCCc1c(CC)c(=N)c2ccccc2n1C`, on hERG (Kv11.1, KCNH2) [1], the inhibition at 11.1 µM worked out at 26%. Besides, at hERG (Kv11.1, KCNH2) [2], the inhibition at 1.1 µM is 0%.

With `CCOC(=O)c1cnc2c(C)cc(C)cc2c1Nc1ccc(OC)c(OC)c1`, the inhibition at 11.1 µM at hERG (Kv11.1, KCNH2) [1] is 18% (inactive). In addition, on hERG (Kv11.1, KCNH2) [2], the inhibition at 1.1 µM came to 26%.

As for `CCN(CC)S(=O)(=O)c1ccc(-c2csc(Nc3ccc(C)c(C)c3)n2)cc1`, the inhibition at 11.1 µM on hERG (Kv11.1, KCNH2) [1] was -3% (inactive). Also, the inhibition at 1.1 µM on hERG (Kv11.1, KCNH2) [2] was -7%.

Consider `CCCn1c(=N)c(C(=O)NC2CCCCC2)cc2c(=O)n3cccc(C)c3nc21`, for which the inhibition at 11.1 µM against hERG (Kv11.1, KCNH2) [1] is 105%. For the same compound, the inhibition at 1.1 µM on hERG (Kv11.1, KCNH2) [2] came out at 63%.

`CCN1CCN(c2c(C(=O)c3ccccc3)cnc3cc(OC)c(OC)cc23)CC1`: on hERG (Kv11.1, KCNH2) [1], the inhibition at 11.1 µM turned out to be 40%. Further, the inhibition at 1.1 µM on hERG (Kv11.1, KCNH2) [2] worked out at 36%.

As to `CC(C)(C)c1ccc(C2CC3=Nc4ccccc4N(C(=O)c4ccccc4Cl)C(c4ccc(F)cc4)C3=C(O)C2)cc1` (configuration not stated), the inhibition at 11.1 µM at hERG (Kv11.1, KCNH2) [1] was 88% (active). Further, at hERG (Kv11.1, KCNH2) [2], the inhibition at 1.1 µM is 30%.
